Laboratory results from patent US7723364B2, “N-[2-(2-pyridinyl) ethyl]benzamide compounds and their use as fungicides” (Bayer Cropscience SA, priority 2003, dated 2010).

Experiments:
[1] = system: Alternaria brassicae; assay: In vivo test on Alternaria brassicae (leaf spot of crucifers) on radish plants; settings: for pest or weed control at 330 ppm: Alternaria brassicae, dose of 330 ppm, radish plants sprayed 24 hours before contamination, grading 6 to 7 days after contamination vs control plants, read-out: good (at least 50%) or total protection; for effectiveness on Alternaria brassicae: comparison compounds of WO 01/11965, 330 ppm
Description: In Vivo Test on Alternaria brassicae (Leaf Spot of Crucifers)
(§1) The active ingredient tested is prepared by potter homogenisation in a concentrated suspension type formulation at 100 g/l. This suspension is then diluted with water to obtain the desired active material concentration.
Radish plants (Pernot variety) in starter cups, sown on a 50/50 peat soil-pozzolana substrate and grown at 18-20° C., are treated at the cotyledon stage by spraying with the aqueous suspension described above.
(§2) Plants, used as controls, are treated with an aqueous solution not containing the active material.
After 24 hours, the plants are contaminated by spraying them with an aqueous suspension of Alternaria brassicae spores (40,000 spores per cm^3). The spores are collected from a 12 to 13 days-old culture.
The contaminated radish plants are incubated for 6-7 days at about 18° C., under a humid atmosphere.
Grading is carried out 6 to 7 days after the contamination, in comparison with the control plants.

[2] = system: Botrytis cinerea; assay: In vivo test on Botrytis cinerea (cucumber grey mould); settings: for pest or weed control at 330 ppm: Botrytis cinerea, dose of 330 ppm, cucumber plants sprayed 24 hours before contamination, grading 5/7 days after contamination vs control plants, read-out: good (at least 50%) or total protection; for effectiveness on Botrytis cinerea: comparison compounds of WO 01/11965, 330 ppm
Description: In Vivo Test on Botrytis cinerea (Cucumber Grey Mould)
as §1
(§3) Cucumber plants (Marketer variety) in starter cups, sown on a 50/50 peat soil-pozzolana substrate and grown at 18-20° C., are treated at the cotyledon Z11 stage by spraying with the aqueous suspension described above. Plants, used as controls, are treated with an aqueous solution not containing the active material.
After 24 hours, the plants are contaminated by depositing drops of an aqueous suspension of Botrytis cinerea spores (150,000 spores per ml) on upper surface of the leaves. The spores are collected from a 15-day-old culture and are suspended in a nutrient solution composed of:
The contaminated cucumber plants are settled for 5/7 days in a climatic room at 15-11° C. (day/night) and at 80% relative humidity.
Grading is carried out 5/7 days after the contamination, in comparison with the control plants. Under these conditions, good (at least 50%) or total protection is observed at a dose of 330 ppm with the following compounds: 1, 2, 3, 4, 5, 6, 9, 10, 13, 18, 21, 22, 23, 25, 26, 27, 28, 29, 32, 34, 35, 38, 40, 43, 44, 45, 46, 47, 50, 51, 52, 53, 57 and 62.

[3] = system: Pyrenophora teres; assay: In vivo test on Pyrenophora teres (barley net blotch); settings: 288 h, dose of 330 ppm, barley plants sprayed 24 hours before contamination, grading 12 days after contamination vs control plants, read-out: good (at least 50%) or total protection
Description: In Vivo Test on Pyrenophora teres (Barley Net Blotch)
as §1
as §3, with “Barley” for “Cucumber”, “(Express” for “(Marketer”, “12°” for “18-20°”, “1-leaf” for “cotyledon Z11”, “stage (10 cm tall)” for “stage”
After 24 hours, the plants are contaminated by spraying them with an aqueous suspension of Pyrenophora teres spores (12,000 spores per ml). The spores are collected from a 12-day-old culture. The contaminated barley plants are incubated for 24 hours at about 20° C. and at 100% relative humidity, and then for 12 days at 80% relative humidity.

[4] = system: Erysiphe graminis f. sp. tritici; assay: In vivo test on Erysiphe graminis f. sp. tritici (powdery mildew of wheat); settings: Blumeria graminis; dose of 330 ppm; wheat plants sprayed 24 hours before contamination; grading 7 to 14 days after contamination vs control plants; read-out: good (at least 50%) or total protection
Description: In Vivo Test on Erysiphe graminis f. sp. tritici (Powdery Mildew of Wheat)
as §1
Wheat plants (Audace variety) in starter cups, sown on 50/50 peat soil-pozzolana substrate and grown at 12° C., are treated at the 1-leaf stage (10 cm tall) by spraying with the aqueous suspension described above.
as §2
After 24 hours, the plants are contaminated by dusting them with Erysiphe graminis f. sp. tritici spores, the dusting being carried out using diseased plants.
Grading is carried out 7 to 14 days after the contamination, in comparison with the control plants.
Under these conditions, good (at least 50%) or total protection is observed at a dose of 330 ppm with the following compounds: 1, 3, 4, 5, 6, 8, 9, 10, 11, 12, 13, 18, 38, 50, 43 and 45.

melting point	Structure (SMILES)	pest or weed control at 330 ppm [1]	pest or weed control at 330 ppm [2]	pest or weed control at 330 ppm [3]	pest or weed control at 330 ppm [4]	effectiveness on Alternaria brassicae [1]	effectiveness on Botrytis cinerea [2]
	O=C(NCCc1ncc(Cl)cc1Cl)c1ccccc1Cl [Compound 2]	≥ 50%	≥ 50%	≥ 50%			
	Cc1cc(Br)cnc1CCNC(=O)c1ccccc1C(F)(F)F [Compound 18]	≥ 50%	≥ 50%	≥ 50%	≥ 50%		
	O=C(NCCc1nc(F)c(F)cc1F)c1ccccc1C(F)(F)F [Compound 12]	≥ 50%		≥ 50%	≥ 50%		
	O=C(NCCc1ncc(Cl)cc1Br)c1ccccc1C(F)(F)F [Compound 38]	≥ 50%	≥ 50%	≥ 50%	≥ 50%		
	O=C(NCCc1ncc(Br)cc1Cl)c1ccccc1Br [Compound 52]	≥ 50%	≥ 50%	≥ 50%			
133 °C	O=C(NCCc1ncc(Cl)cc1Cl)c1ccccc1I [Compound 5, N-[2-(3,5-dichloro-2-pyridinyl)ethyl]-2-(iodo)benzamide]	≥ 50%	≥ 50%	≥ 50%	≥ 50%		
	O=C(NCCc1ncccc1Cl)c1ccccc1C(F)(F)F [Compound 6, N-[2-(3-chloro-2-pyridinyl)ethyl]-2-(trifluoromethyl)benzamide]	≥ 50%	≥ 50%		≥ 50%		
	O=C(NCCc1nc(F)c(Cl)cc1Cl)c1ccccc1C(F)(F)F [Compound 57]	≥ 50%	≥ 50%	≥ 50%			
	O=C(NCCc1nc(Cl)ccc1Cl)c1ccccc1C(F)(F)F [Compound 35]	≥ 50%	≥ 50%	≥ 50%			
	Cc1ccccc1C(=O)NCCc1ncc(Cl)cc1Cl [Compound 3]	≥ 50%	≥ 50%	≥ 50%	≥ 50%		
118 °C	O=C(NCCc1ncc(Cl)cc1Cl)c1ccccc1C(F)(F)F [Compound 1, N-[2-(3,5-dichloro-2-pyridinyl)ethyl]-2-(trifluoromethyl)benzamide]	≥ 50%	≥ 50%	≥ 50%	≥ 50%		
	CNC(=O)C(Cc1ncc(C(F)(F)F)cc1Cl)NC(=O)c1ccc(-c2ccccc2)cc1 (centres unmarked) [compound 316, N-{1-methylcarbamoyl-2-[3-chloro-5-(trifluoromethyl)-2-pyridinyl]-ethyl}-4-phenylbenzamide, reference compound]					poor effectiveness	zero effectiveness
	O=C(NCCc1ncc(Cl)cc1F)c1ccccc1C(F)(F)F [Compound 10]	≥ 50%	≥ 50%	≥ 50%	≥ 50%		
	O=C(NCCc1nc(F)ccc1Cl)c1ccccc1C(F)(F)F [Compound 13]	≥ 50%	≥ 50%	≥ 50%	≥ 50%		
	O=C(NCCc1nc(F)c(Cl)cc1F)c1ccccc1C(F)(F)F [Compound 62]	≥ 50%	≥ 50%	≥ 50%			
	Cc1ccc(CCNC(=O)c2ccccc2C(F)(F)F)nc1 [Compound 9]	≥ 50%	≥ 50%	≥ 50%	≥ 50%		
	Cc1c(F)c(F)nc(CCNC(=O)c2ccccc2I)c1F [Compound 43]	≥ 50%	≥ 50%	≥ 50%	≥ 50%		
	O=C(NCCc1nc(F)c(F)cc1F)c1ccccc1I [Compound 45]	≥ 50%	≥ 50%	≥ 50%	≥ 50%		
	O=C(NCCc1nc(F)c(Cl)cc1Cl)c1ccccc1I [Compound 34]	≥ 50%	≥ 50%	≥ 50%			
	O=C(NCCc1nc(F)c(F)cc1F)c1ccccc1Br [Compound 47]	≥ 50%	≥ 50%	≥ 50%			
	CCNC(=O)C(Cc1ncc(C(F)(F)F)cc1Cl)NC(=O)c1ccc(Cl)cc1 (centres unmarked) [compound 306, N-{1-ethylcarbamoyl-2-[3-chloro-5-(trifluoromethyl)-2-pyridinyl]ethyl}-4-chlorobenzamide, reference compound]						zero effectiveness
	O=C(NCCc1ncc(Cl)cc1Br)c1ccccc1I [Compound 40]	≥ 50%	≥ 50%	≥ 50%			
	O=C(NCCc1ncc(Cl)cc1F)c1ccccc1I [Compound 21]	≥ 50%	≥ 50%	≥ 50%			
	CCNC(=O)C(Cc1ncc(C(F)(F)F)cc1Cl)NC(=O)c1cccc([N+](=O)[O-])c1 (centres unmarked) [compound 307, N-{1-ethylcarbamoyl-2-[3-chloro-5-(trifluoromethyl)-2-pyridinyl]ethyl}-3-nitrobenzamide, reference compound]					poor effectiveness	zero effectiveness
